The values that follow are results of earlier work, collected in patent US20090062907A1, “Self-expanding valve for the venous system” (priority 2007, published 2009).

With `C[C@H](CCC(=O)O)[C@H]1CC[C@H]2[C@@H]3CC[C@@H]4C[C@H](O)CC[C@]4(C)[C@H]3C[C@H](O)[C@]12C` [Deoxycholic acid], the solubility in alcohol result (alcohol) is on record as “soluble”. Also, the solubility in water result (water) is given as “sparingly soluble”.
